Results from BindingDB's records for doi:10.1021/jm0305523 (Merck Research Laboratories, 2004).

Molecular target: T1, Caspase-3 (Homo sapiens, UniProt P42574)
T1 sequence (P42574 whole entry): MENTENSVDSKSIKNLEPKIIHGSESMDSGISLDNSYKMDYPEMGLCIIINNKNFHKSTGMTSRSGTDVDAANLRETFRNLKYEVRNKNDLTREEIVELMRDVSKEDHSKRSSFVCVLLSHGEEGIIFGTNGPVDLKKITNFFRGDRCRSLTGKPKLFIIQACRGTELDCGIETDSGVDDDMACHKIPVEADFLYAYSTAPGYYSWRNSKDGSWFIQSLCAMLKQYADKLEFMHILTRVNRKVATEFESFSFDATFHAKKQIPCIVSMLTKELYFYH
Experiment: Caspase Inhibition Assay
Settings: pH 7; 37 °C

- IC50: 3 nM
Compound: CC(=O)N[C@@H](CC(=O)O)C(=O)N[C@H]1CCc2cccc3c2N(C1=O)[C@H](C(=O)N[C@@H](CC(=O)O)C(=O)CSCc1ccccc1)C3 [(3S)-5-(benzylsulfanyl)-3-{[(2S,11S)-11-[(3S)-3-acetamido-3-formamidopropanoic acid]-12-oxo-1-azatricyclo[6.4.1.0^{4,13}]trideca-4(13),5,7-trien-2-yl]formamido}-4-oxopentanoic acid]
